Data taken from patent US20150141381A1, “TETRACYCLINE COMPOUNDS HAVING TARGET THERAPEUTIC ACTIVITIES” (Paratek Pharmaceuticals, Inc., priority 2001, published 2015).
Like-named read-outs stand apart in the source and are kept apart here.

Tests used:
[1] = tested on: S. aureus RN450; experiment: In Vitro Anti-Bacterial Activity Assay (MIC), gram positive; type: cell-based; details: Staphylococcus aureus, RN450, 18 h
[2] = tested on: E. coli mL308 225; experiment: In Vitro Anti-Bacterial Activity Assay (MIC), gram negative; type: cell-based; details: Escherichia coli, ML308225, 18 h
[3] = MIC class, Table 3, read-out: Antibiotic Activity Gram +
[4] = MIC class, Table 3, read-out: Antibiotic Activity Gram −
[5] = MIC class, Table 3 (Continued), read-out: Gram+ activity
[6] = MIC class, Table 3 (Continued), read-out: Gram− activity
[7] = gram positive bacteria, read-out: Antibiotic Activity Gram + (MIC)
[8] = gram negative bacteria, read-out: Antibiotic Activity Gram − (MIC)

Structure (SMILES)	MIC [1, 3] [µg/mL]	MIC [2, 4] [µg/mL]	MIC [1, 7] [µg/mL]	MIC [2, 8] [µg/mL]	further results
CN(C)c1cc(NC(=O)Nc2ccc(OC(F)(F)F)cc2)c(O)c2c1C[C@H]1C[C@H]3[C@H](N(C)C)C(O)=C(C(N)=O)C(=O)[C@@]3(O)C(O)=C1C2=O [CG]	< 4	> 4			
COC(=O)c1ccc(-c2ccc(O)c3c2C[C@H]2C[C@H]4[C@H](N(C)C)C(O)=C(C(N)=O)C(=O)[C@@]4(O)C(O)=C2C3=O)cc1					MIC [1, 5]: < 4 µg/mL; MIC [2, 6]: < 4 µg/mL
CN(C)[C@H]1C(O)=C(C(N)=O)C(=O)[C@@]2(O)C(O)=C3C(=O)c4c(O)c(CNCC(C)(C)C)cc(-c5ccoc5)c4C[C@H]3C[C@@H]12 [NP]	< 4	< 4			
CC(NNC(N)=O)c1ccc(O)c2c1C[C@H]1C[C@H]3[C@H](N(C)C)C(O)=C(C(N)=O)C(=O)[C@@]3(O)C(O)=C1C2=O (some centres unmarked)			< 4	> 4	
CN(C)[C@@H]1C(O)=C(C(N)=O)C(=O)[C@@]2(O)C(O)=C3C(=O)c4c(O)ccc(-c5ccc(/C=N/O)o5)c4C[C@H]3C[C@@H]12 [NA]	< 4	< 4			
CC(=O)c1cc(C(C)(C)C)c(O)c2c1C[C@H]1C[C@H]3[C@H](N(C)C)C(O)=C(C(N)=O)C(=O)[C@@]3(O)C(O)=C1C2=O			< 4	< 4	
CN(C)c1cc(CNNCC(F)(F)F)c(O)c2c1C[C@H]1C[C@H]3[C@H](N(C)C)C(O)=C(C(N)=O)C(=O)[C@@]3(O)C(O)=C1C2=O			< 4	> 4	
CC1c2ccc(-c3cc4ccccc4o3)c(O)c2C(=O)C2=C(O)[C@]3(O)C(=O)C(C(N)=O)=C(O)[C@@H](N(C)C)[C@@H]3[C@@H](O)[C@@H]21 (some centres unmarked)					MIC [1, 5]: < 4 µg/mL; MIC [2, 6]: < 4 µg/mL
CCCCOc1ccc(-c2ccc(N(C)C)cc2)c2c1C(=O)C1=C(O)[C@]3(O)C(=O)C(C(N)=O)=C(O)[C@@H](N(C)C)[C@@H]3C[C@@H]1C2			< 4	> 4	
CN(C)c1cc(F)c(O)c2c1C[C@H]1C[C@H]3C(N(C)C)C(O)=C(C(N)=O)C(=O)[C@@]3(O)C(O)=C1C2=O (some centres unmarked) [KZ]	< 4	< 4			
CC(C)NCc1ccc(-c2ccc(O)c3c2C[C@H]2C[C@H]4[C@H](N(C)C)C(O)=C(C(N)=O)C(=O)[C@@]4(O)C(O)=C2C3=O)c2ccccc12 [GB]	< 4	< 4			
COc1ccc(-c2ccc3c(c2O)C(=O)C2=C(O)[C@]4(O)C(=O)C(C(N)=O)=C(O)[C@@H](N(C)C)[C@@H]4[C@@H](O)[C@@H]2C3C)cc1 (some centres unmarked)					MIC [1, 5]: < 4 µg/mL; MIC [2, 6]: < 4 µg/mL
CC(O)CCc1ccc(O)c2c1C[C@H]1C[C@H]3[C@H](N(C)C)C(O)=C(C(N)=O)C(=O)[C@@]3(O)C(O)=C1C2=O (some centres unmarked) [CR]	< 4	> 4			
CN1CCC(NCc2cc(N(C)C)c3c(c2O)C(=O)C2=C(O)[C@]4(O)C(=O)C(C(N)=O)=C(O)[C@@H](N(C)C)[C@@H]4C[C@@H]2C3)CC1			> 4	> 4	
COc1ccc(CNCCc2ccccc2)cc1-c1ccc(O)c2c1C[C@H]1C[C@H]3[C@H](N(C)C)C(O)=C(C(N)=O)C(=O)[C@@]3(O)C(O)=C1C2=O			< 4	< 4	
CN(C)c1cc(NC(=O)Nc2cccc(F)c2)c(O)c2c1C[C@H]1C[C@H]3[C@H](N(C)C)C(O)=C(C(N)=O)C(=O)[C@@]3(O)C(O)=C1C2=O [DD]	< 4	> 4			
CN(C)c1cc(CNC2C[C@H]3CC[C@@H]2C3)c(O)c2c1C[C@H]1C[C@H]3[C@H](N(C)C)C(O)=C(C(N)=O)C(=O)[C@@]3(O)C(O)=C1C2=O (some centres unmarked)			< 4	< 4	
Cc1ccc(-c2ccc(O)c3c2C[C@H]2C[C@H]4[C@H](N(C)C)C(O)=C(C(N)=O)C(=O)[C@@]4(O)C(O)=C2C3=O)s1					MIC [1, 5]: < 4 µg/mL; MIC [2, 6]: < 4 µg/mL
CN(C)c1ccc(-c2ccc(O)c3c2C[C@H]2C[C@H]4[C@H](N(C)C)C(O)=C(C(N)=O)C(=O)[C@@]4(O)C(O)=C2C3=O)cc1					MIC [1, 5]: < 4 µg/mL; MIC [2, 6]: < 4 µg/mL
CN(C)c1cc(-c2ccc(F)cc2F)c(O)c2c1C[C@H]1C[C@H]3[C@H](N(C)C)C(O)=C(C(N)=O)C(=O)[C@@]3(O)C(O)=C1C2=O					MIC [1, 5]: < 4 µg/mL; MIC [2, 6]: < 4 µg/mL

Structure (SMILES)	MIC [1, 3] [µg/mL]	MIC [2, 4] [µg/mL]	MIC [1, 7] [µg/mL]	MIC [2, 8] [µg/mL]	further results
CN(C)c1cc(-c2ccc(F)c(F)c2)c(O)c2c1C[C@H]1C[C@H]3[C@H](N(C)C)C(O)=C(C(N)=O)C(=O)[C@@]3(O)C(O)=C1C2=O					MIC [1, 5]: < 4 µg/mL; MIC [2, 6]: < 4 µg/mL
CN(C)c1cc(CNC(=O)C2(N)CC2)c(O)c2c1C[C@H]1C[C@H]3[C@H](N(C)C)C(O)=C(C(N)=O)C(=O)[C@@]3(O)C(O)=C1C2=O			< 4	> 4	
CCOC(=O)Nc1cc(N(C)C)c2c(c1O)C(=O)C1=C(O)[C@]3(O)C(=O)C(C(N)=O)=C(O)[C@@H](N(C)C)[C@@H]3C[C@@H]1C2 [drawing 3362]			< 4	< 4	
CN(C)[C@@H]1C(OCc2ccccc2)=C(C(N)=O)C(=O)[C@@]2(O)C(O)=C3C(=O)c4c(O)cccc4C[C@H]3C[C@@H]12			> 4	> 4	
CN(C)[C@@H]1C(O)=C(C(N)=O)C(=O)[C@@]2(O)C(O)=C3C(=O)c4c(O)c(CN)cc(-c5ccc(F)cc5)c4C[C@H]3C[C@@H]12 [DF]	< 4	> 4			
CCOC(=O)C(Cc1ccccc1)NCc1ccc(OC)c(-c2ccc(O)c3c2C[C@H]2C[C@H]4[C@H](N(C)C)C(O)=C(C(N)=O)C(=O)[C@@]4(O)C(O)=C2C3=O)c1 (some centres unmarked) [FZ]	< 4	> 4			
CCOP(=O)(OCC)C(Nc1ccc2c(c1O)C(=O)C1=C(O)[C@]3(O)C(=O)C(C(N)=O)=C(O)[C@@H](N(C)C)[C@@H]3[C@@H](O)[C@@H]1[C@H]2C)c1ccccc1 (some centres unmarked)					MIC ([1]; read-out: Gram+ activity): < 4 µg/mL; MIC ([2]; read-out: Gram− activity): > 4 µg/mL
C[C@H]1c2ccc(N)c(O)c2C(=O)C2=C(O)[C@]3(O)C(=O)C(C(N)=O)=C(O)[C@@H](N(C)C)[C@@H]3[C@@H](O)[C@@H]21			> 4	> 4	
COc1ccc(CNC2CCCCC2)cc1-c1ccc(O)c2c1C[C@H]1C[C@H]3[C@H](N(C)C)C(O)=C(C(N)=O)C(=O)[C@@]3(O)C(O)=C1C2=O [I]	< 4	< 4			
CN(C)c1cc(C#CC2=CCCC2)c(O)c2c1C[C@H]1C[C@H]3[C@H](N(C)C)C(O)=C(C(N)=O)C(=O)[C@@]3(O)C(O)=C1C2=O			< 4	< 4	
C[C@H]1c2c(-c3ccc4c(c3)OCO4)cc(-c3cccc4c3OCO4)c(O)c2C(=O)C2=C(O)[C@]3(O)C(=O)C(C(N)=O)=C(O)[C@@H](N(C)C)[C@@H]3[C@@H](O)[C@@H]21 [HF]	< 4	> 4			
COc1ncc(-c2ccc(O)c3c2C[C@H]2C[C@H]4[C@H](N(C)C)C(O)=C(C(N)=O)C(=O)[C@@]4(O)C(O)=C2C3=O)c(OC)n1 [GF]	< 4	< 4			
CN[C@@]12C(=O)C(C(N)=O)=C(O)[C@@H](N(C)C)[C@@H]1[C@@H](OC)[C@H]1C(=C2O)C(=O)c2c(O)cccc2[C@@H]1C			> 4	> 4	
COc1ccc(C(=O)Nc2ccc(-c3ccc(O)c4c3C[C@H]3C[C@H]5C(N(C)C)C(O)=C(C(N)=O)C(=O)[C@@]5(O)C(O)=C3C4=O)cc2)cc1 (some centres unmarked) [HT]	< 4	> 4			
C[C@H]1c2ccc(CN3CCCCC3)c(O)c2C(=O)C2=C(O)[C@]3(O)C(=O)C(C(N)=O)=C(O)[C@@H](N(C)C)[C@@H]3[C@@H](O)[C@@H]21			< 4	< 4	
COc1ccc(CCc2ccc(O)c3c2C[C@H]2C[C@H]4[C@H](N(C)C)C(O)=C(C(N)=O)C(=O)[C@@]4(O)C(O)=C2C3=O)cc1					MIC [1, 5]: < 4 µg/mL; MIC [2, 6]: < 4 µg/mL
CC(=O)NCc1cc(N(C)C)c2c(c1O)C(=O)C1=C(O)[C@]3(O)C(=O)C(C(N)=O)=C(O)[C@@H](N(C)C)[C@@H]3C[C@@H]1C2			< 4	> 4	
CN(C)c1cc(CN2CCC3(CC2)OCCO3)c(O)c2c1C[C@H]1C[C@H]3[C@H](N(C)C)C(O)=C(C(N)=O)C(=O)[C@@]3(O)C(O)=C1C2=O			< 4	< 4	
CN(C)[C@@H]1C(O)=C(C(N)=O)C(=O)[C@@]2(O)C(O)=C3C(=O)c4c(O)ccc(CN5CCOCC5)c4C[C@H]3C[C@@H]12			< 4	> 4	
CN(C)c1cc(N2CCOCC2)c(O)c2c1C[C@H]1C[C@H]3[C@H](N(C)C)C(O)=C(C(N)=O)C(=O)[C@@]3(O)C(O)=C1C2=O			> 4	> 4	
